Article doi:10.1101/2023.03.31.535138v1 (biorxiv, 2023)

Biological target: T1, NudC (Escherichia coli, UniProt P32664)
T1 sequence (P32664 1-257): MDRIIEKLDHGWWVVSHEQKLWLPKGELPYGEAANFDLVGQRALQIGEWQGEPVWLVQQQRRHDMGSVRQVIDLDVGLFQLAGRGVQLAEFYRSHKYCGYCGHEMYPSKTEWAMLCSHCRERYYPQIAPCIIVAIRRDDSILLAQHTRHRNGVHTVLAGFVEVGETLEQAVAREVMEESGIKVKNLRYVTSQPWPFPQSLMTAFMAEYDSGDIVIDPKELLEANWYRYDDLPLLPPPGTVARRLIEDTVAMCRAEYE
Experiment: in vitro de-capping of NAD-RNA, gel assay, NudC activity plotted against ppGpp
Format: biochemical

Ki: ~70 µM
SMILES: Nc1nc2c(ncn2[C@@H]2O[C@H](COP(=O)(O)OP(=O)(O)O)[C@@H](OP(=O)(O)OP(=O)(O)O)[C@H]2O)c(=O)[nH]1 [ppGpp]
